Assay results taken from article PMC3672506, “A useful EGFR-TK ligand for tumor diagnosis with SPECT: development of radioiodinated 6-(3-morpholinopropoxy)-7-ethoxy-4-(3′-iodophenoxy)quinazoline” (Annals of Nuclear Medicine, 2013).
Like-named read-outs stand apart in the source and are kept apart here.

Assay type: in vivo
Settings: normal ddY mice; for Blood radioactivity / Bone radioactivity / Brain radioactivity / Colon radioactivity / Heart radioactivity / Intestine radioactivity / Kidney radioactivity / Liver radioactivity / Lung radioactivity / Muscle radioactivity / Pancreas radioactivity / Skin radioactivity / Spleen radioactivity / Stomach radioactivity / Thyroid radioactivity: i.v.
Experimental: [^125I]PYK (37 kBq, 74 TBq/mmol) in 0.1 mL saline was injected intravenously into ddY male mice (5 weeks old, 25–30 g, n = 4) via the lateral tail vein. At the desired time (5 min—24 h) interval after administration, the animals were sacrificed by decapitation. Samples of blood and tissues of interest were excised and weighed. Radioactivity was measured using a well-type NaI(Tl) scintillation gamma counter. The results were expressed in terms of percentage of injected dose per gram of blood or tissue.
[^125I]PYK was transported well into various organs and disappeared slowly from the blood. In the liver highest uptake and rapid clearance were observed. The lungs, kidney, heart, pancreas, spleen, and brain uptakes were similar pattern to that of the liver. Furthermore, the increase in [^125I]PYK uptake in the stomach and thyroid as deiodination parameters were not found.

CCOc1cc2ncnc(Oc3cccc([125I])c3)c2cc1OCCCN1CCOCC1 [[^125I]PYK]
in vivo stability (deiodination: stomach and thyroid uptake): good stability | Blood radioactivity (5 min after injection): 0.98 ± 0.61 % injected dose per gram tissu | Bone radioactivity (5 min after injection): 1.13 ± 0.28 % injected dose per gram tissu | Brain radioactivity (5 min after injection): 2.07 ± 0.07 % injected dose per gram tissu | Colon radioactivity (5 min after injection): 1.89 ± 0.37 % injected dose per gram tissu | Heart radioactivity (5 min after injection): 3.47 ± 0.29 % injected dose per gram tissu | Intestine radioactivity (5 min after injection): 4.57 ± 0.63 % injected dose per gram tissu | Kidney radioactivity (5 min after injection): 15.1 ± 1.38 % injected dose per gram tissu | Liver radioactivity (5 min after injection): 10.5 ± 0.92 % injected dose per gram tissu | Lung radioactivity (5 min after injection): 11.89 ± 2.86 % injected dose per gram tissu | Muscle radioactivity (5 min after injection): 1.78 ± 0.13 % injected dose per gram tissu | Pancreas radioactivity (5 min after injection): 6.95 ± 0.49 % injected dose per gram tissu | Skin radioactivity (5 min after injection): 0.68 ± 0.13 % injected dose per gram tissu | Spleen radioactivity (5 min after injection): 4.42 ± 0.95 % injected dose per gram tissu | Stomach radioactivity (5 min after injection): 2.41 ± 0.59 % injected dose per gram tissu | Thyroid radioactivity (5 min after injection): 0.05 ± 0.04 % injected dose per organ | Blood radioactivity (15 min after injection): 1.05 ± 0.08 % injected dose per gram tissu | Bone radioactivity (15 min after injection): 1.36 ± 0.39 % injected dose per gram tissu | Brain radioactivity (15 min after injection): 3.15 ± 1.22 % injected dose per gram tissu | Colon radioactivity (15 min after injection): 2.21 ± 0.48 % injected dose per gram tissu | Heart radioactivity (15 min after injection): 1.76 ± 0.89 % injected dose per gram tissu | Intestine radioactivity (15 min after injection): 5.57 ± 1.69 % injected dose per gram tissu | Kidney radioactivity (15 min after injection): 15.6 ± 1.33 % injected dose per gram tissu | Liver radioactivity (15 min after injection): 13.9 ± 2.47 % injected dose per gram tissu | Lung radioactivity (15 min after injection): 6.85 ± 1.99 % injected dose per gram tissu | Muscle radioactivity (15 min after injection): 0.97 ± 0.15 % injected dose per gram tissu | Pancreas radioactivity (15 min after injection): 5.52 ± 0.50 % injected dose per gram tissu | Skin radioactivity (15 min after injection): 0.91 ± 0.13 % injected dose per gram tissu | Spleen radioactivity (15 min after injection): 4.23 ± 0.90 % injected dose per gram tissu | Stomach radioactivity (15 min after injection): 3.03 ± 0.36 % injected dose per gram tissu | Thyroid radioactivity (15 min after injection): 0.05 ± 0.03 % injected dose per organ | Blood radioactivity (30 min after injection): 0.80 ± 0.07 % injected dose per gram tissu | Bone radioactivity (30 min after injection): 0.60 ± 0.19 % injected dose per gram tissu | Brain radioactivity (30 min after injection): 0.82 ± 0.33 % injected dose per gram tissu | Colon radioactivity (30 min after injection): 2.33 ± 0.40 % injected dose per gram tissu | Heart radioactivity (30 min after injection): 1.43 ± 0.16 % injected dose per gram tissu | Intestine radioactivity (30 min after injection): 9.11 ± 0.57 % injected dose per gram tissu | Kidney radioactivity (30 min after injection): 12.6 ± 2.36 % injected dose per gram tissu | Liver radioactivity (30 min after injection): 13.3 ± 1.83 % injected dose per gram tissu | Lung radioactivity (30 min after injection): 4.40 ± 1.60 % injected dose per gram tissu | Muscle radioactivity (30 min after injection): 1.02 ± 0.53 % injected dose per gram tissu | Pancreas radioactivity (30 min after injection): 3.42 ± 0.33 % injected dose per gram tissu | Skin radioactivity (30 min after injection): 1.02 ± 0.08 % injected dose per gram tissu | Spleen radioactivity (30 min after injection): 3.70 ± 1.24 % injected dose per gram tissu | Stomach radioactivity (30 min after injection): 3.41 ± 0.37 % injected dose per gram tissu | Thyroid radioactivity (30 min after injection): 0.01 ± 0.01 % injected dose per organ | Blood radioactivity (1 h after injection): 0.83 ± 0.16 % injected dose per gram tissu | Bone radioactivity (1 h after injection): 1.81 ± 2.40 % injected dose per gram tissu | Brain radioactivity (1 h after injection): 0.47 ± 0.29 % injected dose per gram tissu | Colon radioactivity (1 h after injection): 3.30 ± 0.10 % injected dose per gram tissu | Heart radioactivity (1 h after injection): 1.33 ± 0.23 % injected dose per gram tissu | Intestine radioactivity (1 h after injection): 15.84 ± 2.63 % injected dose per gram tissu | Kidney radioactivity (1 h after injection): 7.94 ± 0.37 % injected dose per gram tissu | Liver radioactivity (1 h after injection): 12.3 ± 2.45 % injected dose per gram tissu | Lung radioactivity (1 h after injection): 3.42 ± 0.83 % injected dose per gram tissu | Muscle radioactivity (1 h after injection): 0.65 ± 0.04 % injected dose per gram tissu | Pancreas radioactivity (1 h after injection): 2.47 ± 0.43 % injected dose per gram tissu | Skin radioactivity (1 h after injection): 0.99 ± 0.06 % injected dose per gram tissu | Spleen radioactivity (1 h after injection): 2.44 ± 0.35 % injected dose per gram tissu | Stomach radioactivity (1 h after injection): 4.33 ± 0.76 % injected dose per gram tissu | Thyroid radioactivity (1 h after injection): 0.03 ± 0.01 % injected dose per organ | Blood radioactivity (3 h after injection): 0.50 ± 0.13 % injected dose per gram tissu | Bone radioactivity (3 h after injection): 0.25 ± 0.16 % injected dose per gram tissu | Brain radioactivity (3 h after injection): 0.27 ± 0.05 % injected dose per gram tissu | Colon radioactivity (3 h after injection): 21.14 ± 5.62 % injected dose per gram tissu | Heart radioactivity (3 h after injection): 0.64 ± 0.25 % injected dose per gram tissu | Intestine radioactivity (3 h after injection): 14.82 ± 7.80 % injected dose per gram tissu | Kidney radioactivity (3 h after injection): 13.80 ± 9.25 % injected dose per gram tissu | Liver radioactivity (3 h after injection): 10.94 ± 7.67 % injected dose per gram tissu | Lung radioactivity (3 h after injection): 1.75 ± 0.18 % injected dose per gram tissu | Muscle radioactivity (3 h after injection): 1.00 ± 1.27 % injected dose per gram tissu | Pancreas radioactivity (3 h after injection): 2.18 ± 0.92 % injected dose per gram tissu | Skin radioactivity (3 h after injection): 0.47 ± 0.46 % injected dose per gram tissu | Spleen radioactivity (3 h after injection): 0.99 ± 0.56 % injected dose per gram tissu | Stomach radioactivity (3 h after injection): 0.59 ± 0.23 % injected dose per gram tissu | Thyroid radioactivity (3 h after injection): 0.05 ± 0.04 % injected dose per organ | Blood radioactivity (6 h after injection): 0.29 ± 0.03 % injected dose per gram tissu | Bone radioactivity (6 h after injection): 0.23 ± 0.02 % injected dose per gram tissu | Brain radioactivity (6 h after injection): 0.11 ± 0.03 % injected dose per gram tissu | Colon radioactivity (6 h after injection): 22.10 ± 7.54 % injected dose per gram tissu | Heart radioactivity (6 h after injection): 0.63 ± 0.21 % injected dose per gram tissu | Intestine radioactivity (6 h after injection): 8.53 ± 1.84 % injected dose per gram tissu | Kidney radioactivity (6 h after injection): 3.58 ± 0.52 % injected dose per gram tissu | Liver radioactivity (6 h after injection): 4.70 ± 0.36 % injected dose per gram tissu | Lung radioactivity (6 h after injection): 1.77 ± 0.22 % injected dose per gram tissu | Muscle radioactivity (6 h after injection): 0.25 ± 0.04 % injected dose per gram tissu | Pancreas radioactivity (6 h after injection): 1.53 ± 0.38 % injected dose per gram tissu | Skin radioactivity (6 h after injection): 0.75 ± 0.46 % injected dose per gram tissu | Spleen radioactivity (6 h after injection): 1.08 ± 0.25 % injected dose per gram tissu | Stomach radioactivity (6 h after injection): 0.73 ± 0.60 % injected dose per gram tissu | Thyroid radioactivity (6 h after injection): 0.03 ± 0.02 % injected dose per organ | Blood radioactivity (24 h after injection): 0.08 ± 0.04 % injected dose per gram tissu | Bone radioactivity (24 h after injection): 0.04 ± 0.02 % injected dose per gram tissu | Brain radioactivity (24 h after injection): 0.02 ± 0.06 % injected dose per gram tissu | Colon radioactivity (24 h after injection): 15.91 ± 6.59 % injected dose per gram tissu | Heart radioactivity (24 h after injection): 0.22 ± 0.04 % injected dose per gram tissu | Intestine radioactivity (24 h after injection): 3.76 ± 1.38 % injected dose per gram tissu | Kidney radioactivity (24 h after injection): 0.62 ± 0.10 % injected dose per gram tissu | Liver radioactivity (24 h after injection): 0.52 ± 0.10 % injected dose per gram tissu | Lung radioactivity (24 h after injection): 0.38 ± 0.09 % injected dose per gram tissu | Muscle radioactivity (24 h after injection): 0.03 ± 0.01 % injected dose per gram tissu | Pancreas radioactivity (24 h after injection): 0.35 ± 0.05 % injected dose per gram tissu | Skin radioactivity (24 h after injection): 0.17 ± 0.11 % injected dose per gram tissu | Spleen radioactivity (24 h after injection): 0.24 ± 0.02 % injected dose per gram tissu | Stomach radioactivity (24 h after injection): 0.16 ± 0.04 % injected dose per gram tissu | Thyroid radioactivity (24 h after injection): 0.01 ± 0.00 % injected dose per organ
